In patent US20250114347A1, “TOPICAL NALTREXONE AS A TREATMENT FOR DRY EYE” (The Penn State Research Foundation, priority 2022, published 2025):

Columns and labels:
diabetic rats = assay: Schirmer test (tear production) in hyperglycemic rats with dry eye, topical drops twice daily; assay type: in vivo, Sprague-Dawley rats
Experimental: (§1) Four solutions were prepared with 0%, 0.5%, 1.5%, and 3% naltrexone (NTX). Previous formulations contained 0.003% NTX.
Adult male and female Sprague-Dawley rats were rendered hyperglycemic for 6-8 weeks, with blood glucose levels >600 mg/dL. Age at time of testing was 15-18 weeks of age.
(§2) Experimental paradigm: 1-4 rats were tested with each dose (mixture of male and females). Left eyes only were treated twice daily with one drop. • Schirmer test for baseline (to determine tear production and establish dry eye) • Add drop at 0800 and again at 1700 hr (4:40-6:00 pm) • Take Schirmer test 24 hr later • Add drop at 0800 and again at 1700 hr (4th drop) • Take Schirmer test 48 hr after first drop

normal rat = assay: Schirmer test (tear production) in a normal rat, topical drops; assay type: in vivo; conditions: 3% NTX solution, topical drop
Experimental: as §1, §2

O=C1CC[C@@]2(O)[C@H]3Cc4ccc(O)c5c4[C@@]2(CCN3CC2CC2)[C@H]1O5 [NTX, 17-(cyclopropylmethyl)-4,5α-epoxy-3,14-dihydroxymorphinan-6-one]
reversal of dry eye (diabetic rats; 0.5% NTX solution, one drop twice daily, Schirmer test at 24 and 48 hr): reversed dry eye
relative effectiveness among the tested concentrations (diabetic rats; 1.5% NTX solution compared with 0.5% and 3%): most effective
reversal of dry eye (diabetic rats; 1.5% NTX solution, one drop twice daily, Schirmer test at 24 and 48 hr): reversed dry eye
reversal of dry eye (diabetic rats; 3% NTX solution left at RT for 3 weeks (some decomposition of the NTX)): effective at reversing dry eye
reversal of dry eye (diabetic rats; 3% NTX solution, both male and female, one drop twice daily, Schirmer test at 24 and 48 hr): did not reverse dry eye
effect on dry eye in a normal rat (normal rat): caused dry eye
